Key:
[1] = target: T1, human muscarinic M1 receptor (Homo sapiens, UniProt P11229); assay: Alphascreen Surefire phospho-ERK1/2 functional assay, M1; format: cell-based; settings: for EC50: read-out: pEC50 M1 (converted); for Emax: CHO, read-out: % Emax cf. ACh, M1, CHO cells stably expressing human M1
T1 sequence (P11229 1-460): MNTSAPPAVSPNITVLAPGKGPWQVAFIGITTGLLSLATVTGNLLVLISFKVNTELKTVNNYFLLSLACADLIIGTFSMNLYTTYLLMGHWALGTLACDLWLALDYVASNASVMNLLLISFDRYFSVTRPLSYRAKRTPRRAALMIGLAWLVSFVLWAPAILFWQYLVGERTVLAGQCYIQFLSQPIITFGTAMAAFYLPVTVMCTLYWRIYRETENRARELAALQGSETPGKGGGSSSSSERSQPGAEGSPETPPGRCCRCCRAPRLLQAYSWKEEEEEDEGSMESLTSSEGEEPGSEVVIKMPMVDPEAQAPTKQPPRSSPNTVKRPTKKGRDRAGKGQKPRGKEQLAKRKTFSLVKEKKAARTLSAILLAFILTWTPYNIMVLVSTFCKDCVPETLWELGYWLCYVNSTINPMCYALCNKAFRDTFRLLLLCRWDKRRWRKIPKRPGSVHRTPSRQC

[2] = target: T2, human muscarinic M2 receptor (Homo sapiens, UniProt P08172); assay: Alphascreen Surefire phospho-ERK1/2 functional assay, M2; settings: for Emax: CHO, read-out: % Emax cf. ACh, M2, CHO cells stably expressing human M2
T2 sequence (P08172 1-466): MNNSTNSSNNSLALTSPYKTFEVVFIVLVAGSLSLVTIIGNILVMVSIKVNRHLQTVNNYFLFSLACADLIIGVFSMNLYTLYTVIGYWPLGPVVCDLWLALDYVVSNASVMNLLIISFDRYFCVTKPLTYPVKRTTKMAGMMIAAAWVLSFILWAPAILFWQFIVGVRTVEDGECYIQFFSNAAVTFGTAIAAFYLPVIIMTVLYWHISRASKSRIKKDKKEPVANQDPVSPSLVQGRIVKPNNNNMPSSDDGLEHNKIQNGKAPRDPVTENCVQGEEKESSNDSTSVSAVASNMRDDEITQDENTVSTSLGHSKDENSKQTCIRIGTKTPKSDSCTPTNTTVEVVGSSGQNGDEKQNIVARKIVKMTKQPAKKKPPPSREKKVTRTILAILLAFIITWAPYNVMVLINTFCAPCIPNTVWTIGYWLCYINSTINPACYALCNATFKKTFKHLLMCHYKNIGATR

[3] = target: human muscarinic M3 receptor (Homo sapiens, UniProt P20309); assay: Alphascreen Surefire phospho-ERK1/2 functional assay, M3; settings: for Emax: CHO, read-out: % Emax cf. ACh, M3, CHO cells stably expressing human M3; for Emax / % Emax cf. ACh, M3: relative to ACh; for EC50: pEC50 M3, CHO cells stably expressing human M3, phospho-ERK1/2, * = variable results; for % Emax cf. ACh, M3: CHO cells stably expressing human M3
[4] = target: T3, human muscarinic M4 receptor (Homo sapiens, UniProt P08173); assay: Alphascreen Surefire phospho-ERK1/2 functional assay, M4; format: cell-based; settings: for EC50 / % Emax cf. ACh, M4: CHO cells stably expressing human M4; for EC50: phospho-ERK1/2, * = variable results, read-out: pEC50 M4 (converted); for Emax: CHO, read-out: % Emax cf. ACh, M4, CHO cells stably expressing human M4; for Emax / % Emax cf. ACh, M4: relative to ACh
T3 construct: expressed in transfected cells
T3 sequence (P08173 1-479): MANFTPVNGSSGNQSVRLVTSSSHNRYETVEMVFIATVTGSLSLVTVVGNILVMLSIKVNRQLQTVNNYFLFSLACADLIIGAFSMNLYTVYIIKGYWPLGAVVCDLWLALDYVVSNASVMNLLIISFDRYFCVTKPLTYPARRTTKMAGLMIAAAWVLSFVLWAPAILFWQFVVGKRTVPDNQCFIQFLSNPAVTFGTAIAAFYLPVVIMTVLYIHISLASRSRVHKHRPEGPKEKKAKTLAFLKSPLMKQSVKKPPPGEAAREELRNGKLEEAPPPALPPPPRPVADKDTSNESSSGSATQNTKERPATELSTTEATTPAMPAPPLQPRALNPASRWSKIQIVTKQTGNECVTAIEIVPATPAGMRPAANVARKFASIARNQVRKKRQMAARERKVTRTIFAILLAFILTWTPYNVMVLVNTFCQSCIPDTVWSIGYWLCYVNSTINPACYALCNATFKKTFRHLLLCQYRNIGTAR

[5] = CHO cells stably expressing human M1, phospho-ERK1/2, * = variable results

Sequence of human muscarinic M3 receptor (P20309 whole entry): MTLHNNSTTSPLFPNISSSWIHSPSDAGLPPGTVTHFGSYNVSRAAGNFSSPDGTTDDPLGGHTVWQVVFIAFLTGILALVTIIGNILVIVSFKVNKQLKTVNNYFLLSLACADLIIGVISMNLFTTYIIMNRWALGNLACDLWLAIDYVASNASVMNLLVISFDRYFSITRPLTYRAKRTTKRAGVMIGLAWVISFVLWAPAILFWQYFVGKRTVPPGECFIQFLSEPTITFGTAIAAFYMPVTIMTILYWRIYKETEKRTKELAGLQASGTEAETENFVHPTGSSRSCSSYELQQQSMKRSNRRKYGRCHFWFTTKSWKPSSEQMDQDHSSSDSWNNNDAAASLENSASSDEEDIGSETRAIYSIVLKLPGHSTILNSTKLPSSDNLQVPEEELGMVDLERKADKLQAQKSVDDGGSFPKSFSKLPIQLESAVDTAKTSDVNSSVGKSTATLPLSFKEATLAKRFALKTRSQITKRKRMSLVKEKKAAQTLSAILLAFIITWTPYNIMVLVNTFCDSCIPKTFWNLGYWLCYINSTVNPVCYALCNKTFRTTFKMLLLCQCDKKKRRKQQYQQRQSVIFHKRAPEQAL

| EC50 [1, 5] [µM] | Emax ([1]; relative to ACh) [%] | EC50 [2] [µM] | Emax ([2]; relative to ACh) [%] | Emax [3] [%] | EC50 [3] [µM] | EC50 [4] [µM] | Emax [4] [%] | % Emax cf. ACh, M2 ([2]; CHO cells stably expressing human M2, relative to ACh) [%] | % Emax cf. ACh, M3 [3] [%] | % Emax cf. ACh, M4 [4] [%] | pEC50 M1 [1, 5] | % Emax cf. ACh, M1 ([1]; CHO cells stably expressing human M1, relative to ACh) [%] | SMILES |
| --- | --- | --- | --- | --- | --- | --- | --- | --- | --- | --- | --- | --- | --- |
| 0.398 | 108 | > 20 | 1 | 4 | > 20 | 0.0158 | 92 | – | – | – | – | – | CCOC(=O)N1CCC2(CC(N3CCC([C@@H]4CCCN4C(=O)NC4(C)CCC4)CC3)C2)C1 (single isomer, unassigned) [2-35 Isomer 2] |
| > 20 | 9 | > 20 | 9 | 6 | > 20 | 0.01 | 57 | – | – | – | – | – | CCOC(=O)N1CCC2(CC(N3CCC([C@@H]4CCCN4C(=O)OC)CC3)C2)C1 (single isomer, unassigned) [2-12 Isomer 2] |
| 3.16 | 19 | > 20 | 4 | 5 | > 20 | 0.0501 | 47 | – | – | – | – | – | CCOC(=O)N1CCC2(CC(N3CCC([C@@H]4CCCN4C(=O)OC4CCC4)CC3)C2)C1 (single isomer, unassigned) [2-43 Isomer 2] |
| 0.631 | 96 | > 20 | 8 | 0 | > 20 | 0.00501 | 134 | – | – | – | – | – | CCOC(=O)N1CCC2(CC(N3CCC([C@@H]4CCCN4C(=O)NC4COC4)CC3)C2)C1 (single isomer, unassigned) [2-56 Isomer 2] |
| 0.631 | 49 | > 20 | 4 | 4 | > 20 | 0.02 | 85 | – | – | – | – | – | CCOC(=O)N1CCC2(CC(N3CCC([C@@H]4CCCN4C(=O)CO)CC3)C2)C1 (single isomer, unassigned) [2-52 Isomer 2] |
| 0.0316 | 24 | > 20 | 0.4 | 15 | > 20 | 0.01 | 73 | – | – | – | – | – | CCOC(=O)N1CCC2(CC(N3CCC([C@@H]4CCCN4C(=O)N4CCC4)CC3)C2)C1 (single isomer, unassigned) [2-27 Isomer 2] |

The remaining lines, values behind:

| SMILES | EC50 [1, 5] [µM] | Emax ([1]; relative to ACh) [%] | EC50 [2] [µM] | Emax ([2]; relative to ACh) [%] | Emax [3] [%] | EC50 [3] [µM] | EC50 [4] [µM] | Emax [4] [%] | % Emax cf. ACh, M2 ([2]; CHO cells stably expressing human M2, relative to ACh) [%] | % Emax cf. ACh, M3 [3] [%] | % Emax cf. ACh, M4 [4] [%] | pEC50 M1 [1, 5] | % Emax cf. ACh, M1 ([1]; CHO cells stably expressing human M1, relative to ACh) [%] |
| --- | --- | --- | --- | --- | --- | --- | --- | --- | --- | --- | --- | --- | --- |
| CCOC(=O)N1CCC2(CC(N3CCC(c4ccc[nH]c4=O)CC3)C2)C1 (single isomer, unassigned) [3-2 Isomer 1, ethyl 2-[4-(2-oxo-1,2-dihydropyridin-3-yl)piperidin-1-yl]-6-azaspiro[3.4]octane-6-carboxylate] | 0.0316 | 97 | > 20 | 7 | 0 | > 20 | 0.00631 | 115 | – | – | – | – | – |
| CCOC(=O)N1CCC2(CC(N3CCC([C@@H]4CCCN4C(=O)N(C)OC)CC3)C2)C1 (single isomer, unassigned) [2-34 Isomer 1] | 2 | 74 | > 20 | – | – | > 20 | 0.0251 | – | 16 | 8 | 89 | – | – |
| CCOC(=O)N1CCC2(CC(N3CCC(N4CCCC[C@@H]4C(=O)OC)CC3)C2)C1 (single isomer, unassigned) [4-15 Isomer 2] | 0.251 | 82 | > 20 | 7 | 13 | > 20 | 0.0631 | 113 | – | – | – | – | – |
| CCOC(=O)N1CCC2(CC(N3CCC(N4CC(F)(F)C[C@@H]4C(C)O)CC3)C2)C1 (single isomer, unassigned) [2-109 Isomer 2] | 0.398 | 50 | > 20 | 9 | – | 10 | 0.0158 | 91 | – | 26 | – | – | – |
| CCOC(=O)N1CCC2(CC(N3CCC(N4C(=O)CCC4(C)C)CC3)C2)C1 (single isomer, unassigned) [2-117 Isomer 2, ethyl 2-[4-(2,2-dimethyl-5-oxopyrrolidin-1-yl)piperidin-1-yl]-6-azaspiro[3.4]octane-6-carboxylate] | 6.31 | 99 | > 20 | 4 | 7 | > 20 | 0.0631 | 96 | – | – | – | – | – |
| CCOC(=O)N1CCC2(CC(N3CCC([C@@H]4CCCN4C(=O)N(C)CC(F)(F)F)CC3)C2)C1 (single isomer, unassigned) [2-55 Isomer 2] | – | – | > 20 | 22 | 12 | > 20 | 0.0251 | – | – | – | 52 | < 4.7 | 7 |
| CCOC(=O)N1CCC2(CC(N3CCC([C@@H]4CCCN4C(=O)CC(F)(F)F)CC3)C2)C1 (single isomer, unassigned) [2-53 Isomer 2] | 0.0794 | 109 | > 20 | 10 | 21 | 6.31 | 0.00794 | 126 | – | – | – | – | – |
| CCOC(=O)N1CCC2(CC(N3CCC(c4nccn4CC#N)CC3)C2)C1 (single isomer, unassigned) [1-52 Isomer 2, ethyl 2-{4-[1-(cyanomethyl)-1H-imidazol-2-yl]piperidin-1-yl}-6-azaspiro[3.4]octane-6-carboxylate] | 0.158 | 102 | > 20 | 15 | 20 | > 20 | 0.0158 | 106 | – | – | – | – | – |
| CCOC(=O)N1CCC2(CC(N3CCC([C@@H]4CCCN4Cc4ccccc4)CC3)C2)C1 (single isomer, unassigned) [2-74 Isomer 2] | > 20 | 18 | > 20 | 16 | 8 | > 20 | 0.0794 | 54 | – | – | – | – | – |
| CCOC(=O)N1CCC2(CC(N3CCC(N4CCC(F)(F)C4)CC3)C2)C1 (single isomer, unassigned) [2-100 Isomer 2, ethyl 2-[4-(3,3-difluoropyrrolidin-1-yl)piperidin-1-yl]-6-azaspiro[3.4]octane-6-carboxylate] | > 20 | 16 | > 20 | 4 | 5 | > 20 | 0.2 | 55 | – | – | – | – | – |
| CCOC(=O)N1CCC2(CC(N3CCC(c4nc(Cl)c(Cl)n4C)CC3)C2)C1 (single isomer, unassigned) [1-17 Isomer 2, ethyl 2-[4-(4,5-dichloro-1-methyl-1H-imidazol-2-yl)piperidin-1-yl]-6-azaspiro[3.4]octane-6-carboxylate] | 0.631 | 53 | > 20 | 14 | 0 | > 20 | 0.0631 | 90 | – | – | – | – | – |

— patent publication US9926297B2, “Bicyclic AZA compounds as muscarinic M1 receptor and/or M4 receptor agonists” (Heptares Therapeutics Limited, priority 2014, dated 2018)
